Assay results as given in patent US8895745B2, “Bicyclic heterocyclic compounds as FGFR inhibitors” (Astex Therapeutics Limited, priority 2006, dated 2014).
Structures can show the parent of a compound that is named as a salt.

Tested on: LP-1 cell line
Assay: Cell-based pERK ELISA method, LP-1 cells
Settings: Homo sapiens, LP-1, read-out: IC50 less than 1 μM or at least 50% inhibition at a concentration of 1 μM, LP-1 pERK ELISA

IC50, < 1 µM:
O=C(NCC(F)(F)F)Nc1cccc(-c2cnc3cc(-c4cccc(C(=O)N5CCOCC5)c4)ccn23)c1 [Example 150, 1-(3-{7-[3-(Morpholine-4-carbonyl)-phenyl]-imidazo[1,2-a]pyridin-3-yl}-phenyl)-3-(2,2,2-trifluoro-ethyl)-urea Hydrochloride]
COc1ncc(-c2cnc3c(-c4cccc(NC(=O)NCC(F)(F)F)c4)cnn3c2)cn1 [Example 151, 1-{3-[6-(2-Methoxy-pyrimidin-5-yl)-pyrazolo[1,5-a]pyrimidin-3-yl]-phenyl}-3-(2,2,2-trifluoro-ethyl)-urea]
O=C(NCC(F)(F)F)Nc1cccc(-c2cnn3cc(-c4cn[nH]c4)cnc23)c1 [Example 155, 1-{3-[6-(1H-Pyrazol-4-yl)-pyrazolo[1,5-a]pyrimidin-3-yl]-phenyl}-3-(2,2,2-trifluoro-ethyl)-urea Hydrochloride]
Cn1cc(-c2cnc3c(-c4cccc(NC(=O)NCC(F)(F)F)c4)cnn3c2)ccc1=O [Example 158, 1-{3-[6-(1-Methyl-6-oxo-1,6-dihydro-pyridin-3-yl)-pyrazolo[1,5-a]pyrimidin-3-yl]-phenyl}-3-(2,2,2-trifluoro-ethyl)-urea]
CCNC(=O)Nc1cccc(-n2cnc3cc(-c4ccc(F)cc4)ccc32)c1 [Example 159, 1-Ethyl-3-{3-[5-(4-fluoro-phenyl)-benzoimidazol-1-yl]-phenyl}-urea Hydrochloride]
O=C(NCC(F)(F)F)Nc1cccc(-c2cnn3cc(-c4cccc(C(=O)N5CCOCC5)c4)cnc23)c1 [Example 165, 1-(3-{6-[3-(Morpholine-4-carbonyl)-phenyl]-pyrazolo[1,5-a]pyrimidin-3-yl}-phenyl)-3-(2,2,2-trifluoro-ethyl)-urea]
CCNC(=O)Nc1cccc(-n2cnc3cc(-c4ccc(F)cc4)cnc32)c1 [Example 169, 1-Ethyl-3-{3-[6-(4-fluoro-phenyl)-imidazo[4,5-b]pyridin-3-yl]-phenyl}-urea]
O=C(NCC(F)(F)F)Nc1cccc(-c2cnc3cc(-c4ccc(F)nc4)ccn23)c1 [Example 174, 1-{3-[7-(6-Fluoro-pyridin-3-yl)-imidazo[1,2-a]pyridin-3-yl]-phenyl}-3-(2,2,2-trifluoro-ethyl)-urea]
O=C(NCC(F)(F)F)Nc1cccc(-n2cnc3cc(-c4ccc(F)cc4)ccc32)c1 [Example 175, 1-{3-[5-(4-Fluoro-phenyl)-benzoimidazol-1-yl]-phenyl}-3-(2,2,2-trifluoro-ethyl)-urea]
CCS(=O)(=O)N1CCN(c2ccn3c(-c4cccc(NC(=O)NCC(F)(F)F)c4)cnc3c2)CC1 [Example 177, 1-{3-[7-(4-Ethanesulfonyl-piperazin-1-yl)-imidazo[1,2-a]pyridin-3-yl]-phenyl}-3-(2,2,2-trifluoro-ethyl)-urea hydrochloride salt]
O=C(NCC(F)(F)F)Nc1cccc(-n2cnc3cc(-c4ccc(F)cc4)cnc32)c1 [Example 179]
Cc1ccc(-c2cnc3c(-c4cccc(NC(=O)NCC(F)(F)F)c4)cnn3c2)o1 [Example 180]
O=C(NCC(F)(F)F)Nc1cccc(-c2cnc3cc(-c4cccc(CN5CCOCC5)c4)ccn23)c1 [Example 184, 1-{3-[7-(3-Morpholin-4-ylmethyl-phenyl)-imidazo[1,2-a]pyridin-3-yl]-phenyl}-3-(2,2,2-trifluoro-ethyl)-urea Hydrochloride]
O=C(NCC(F)(F)F)Nc1cccc(-c2cnn3cc(-c4cccc(CN5CCOCC5)c4)cnc23)c1 [Example 189, 1-{3-[6-(3-Morpholin-4-ylmethyl-phenyl)-pyrazolo[1,5-a]pyrimidin-3-yl]-phenyl}-3-(2,2,2-trifluoro-ethyl)-urea Hydrochloride]
CC(=O)N1CCC(Oc2cccc(-c3ccn4c(-c5cccc(NC(=O)NCC(F)(F)F)c5)cnc4c3)c2)CC1 [Example 193, 1-(3-{7-[3-(1-Acetyl-piperidin-4-yloxy)-phenyl]-imidazo[1,2-a]pyridin-3-yl}-phenyl)-3-(2,2,2-trifluoro-ethyl)-urea Formate]
CCNC(=O)Nc1cncc(-c2cnn3cc(-c4ccc(F)cc4)cnc23)c1 [Example 197, 1-Ethyl-3-{5-[6-(4-fluoro-phenyl)-pyrazolo[1,5-a]pyrimidin-3-yl]-pyridin-3-yl}-urea]
O=C(NCC(F)(F)F)Nc1cccc(-c2cnc3cc(-c4cccc(OC5CCNCC5)c4)ccn23)c1 [Example 200, 1-(3-{7-[3-(Piperidin-4-yloxy)-phenyl]-imidazo[1,2-a]pyridin-3-yl}-phenyl)-3-(2,2,2-trifluoro-ethyl)-urea]
O=C(NCC(F)(F)F)Nc1cccc(-c2cnc3cc(N4CCC4)ccn23)c1 [Example 202, 1-[3-(7-Azetidin-1-yl-imidazo[1,2-a]pyridin-3-yl)-phenyl]-3-(2,2,2-trifluoro-ethyl)-urea]
CCNC(=O)Nc1cc(-c2cnn3cc(-c4ccc(F)cc4)cnc23)ccn1 [Example 204, 1-Ethyl-3-{4-[6-(4-fluoro-phenyl)-pyrazolo[1,5-a]pyrimidin-3-yl]-pyridin-2-yl}-urea]
O=C1CN(Cc2cccc(-c3ccn4c(-c5cccc(NC(=O)NCC(F)(F)F)c5)cnc4c3)c2)CCN1 [Example 206, 1-(3-{7-[3-(3-Oxo-piperazin-1-ylmethyl)-phenyl]-imidazo[1,2-a]pyridin-3-yl}-phenyl)-3-(2,2,2-trifluoro-ethyl)-urea]
O=C(NCC(F)(F)F)Nc1cccc(-c2cnc3cc(-c4ccc(=O)n(CCCN5CCCCC5)c4)ccn23)c1 [Example 208, 1-(3-{7-[6-Oxo-1-(3-piperidin-1-yl-propyl)-1,6-dihydro-pyridin-3-yl]-imidazo[1,2-a]pyridin-3-yl}-phenyl)-3-(2,2,2-trifluoro-ethyl)-urea Hydrochloride]
O=C(NCC(F)(F)F)Nc1cccc(-c2cnc3cc(-c4ccnc(OC5CCOCC5)c4)ccn23)c1 [Example 212, 1-(3-{7-[2-(Tetrahydro-pyran-4-yloxy)-pyridin-4-yl]-imidazo[1,2-a]pyridin-3-yl}-phenyl)-3-(2,2,2-trifluoro-ethyl)-urea]
N#Cc1cc(NC(=O)NCC(F)(F)F)cc(-c2cnc3cc(-c4ccc(F)cc4)ccn23)c1 [Example 214, 1-{3-Cyano-5-[7-(4-fluoro-phenyl)-imidazo[1,2-a]pyridin-3-yl]-phenyl}-3-(2,2,2-trifluoro-ethyl)-urea]
CCNC(=O)Nc1cc(OC)cc(-c2cnc3cc(-c4ccc(F)cc4)ccn23)c1 [Example 216, 1-Ethyl-3-{3-[7-(4-fluoro-phenyl)-imidazo[1,2-a]pyridin-3-yl]-5-methoxy-phenyl}-urea]
COc1cc(NC(=O)NCC(F)(F)F)cc(-c2cnc3cc(-c4ccc(F)cc4)ccn23)c1 [Example 217, 1-{3-[7-(4-Fluoro-phenyl)-imidazo[1,2-a]pyridin-3-yl]-5-methoxy-phenyl}-3-(2,2,2-trifluoro-ethyl)-urea]
O=C(NCC(F)(F)F)Nc1cncc(-c2cnc3cc(-c4ccc(F)cc4)ccn23)c1 [Example 218, 1-{5-[7-(4-Fluoro-phenyl)-imidazo[1,2-a]pyridin-3-yl]-pyridin-3-yl}-3-(2,2,2-trifluoro-ethyl)-urea]
O=C(NCC(F)(F)F)Nc1cccc(-c2cnc3cc(-c4cccc(CO)c4)ccn23)c1 [Example 219, 1-{3-[7-(3-Hydroxy-methyl-phenyl)-imidazo[1,2-a]pyridin-3-yl]-phenyl}-3-(2,2,2-trifluoro-ethyl)-urea]
CN1CCN(C(=O)c2cccc(-c3ccn4c(-c5cccc(NC(=O)NCC(F)(F)F)c5)cnc4c3)c2)CC1 [Example 220, 1-(3-{7-[3-(4-Methyl-piperazine-1-carbonyl)-phenyl]-imidazo[1,2-a]pyridin-3-yl}-phenyl)-3-(2,2,2-trifluoro-ethyl)-urea]
Cc1ccn2c(-c3cccc(NC(=O)NCC(F)(F)F)c3)cnc2c1 [Example 225]
CCNC(=O)Nc1cccc(-c2cnc3cc(-c4cccc(CN5CCN(C)CC5)c4)ccn23)c1 [Example 227]
O=C(NCC(F)(F)F)Nc1cccc(-c2cnc3cc(Cl)ccn23)c1 [Example 228]
O=C(NCC(F)F)Nc1cccc(-c2cnc3cc(-c4ccc(F)cc4)ccn23)c1 [Example 229, 1-(2,2-Difluoro-ethyl)-3-{3-[7-(4-fluoro-phenyl)-imidazo[1,2-a]pyridin-3-yl]-phenyl}-urea Hydrochloride]
Cc1nn(C)c(C)c1-c1ccn2c(-c3cccc(NC(=O)NCC(F)(F)F)c3)cnc2c1 [Example 234, 1-(2,2,2-Trifluoro-ethyl)-3-{3-[7-(1,3,5-trimethyl-1H-pyrazol-4-yl)-imidazo[1,2-a]pyridin-3-yl]-phenyl}-urea]
CC(C)Oc1cc(NC(=O)NCC(F)(F)F)cc(-c2cnc3cc(-c4ccc(F)cc4)ccn23)c1 [Example 238, 1-{3-[7-(4-Fluoro-phenyl)-imidazo[1,2-a]pyridin-3-yl]-5-isopropoxy-phenyl}-3-(2,2,2-trifluoro-ethyl)-urea]
CS(=O)(=O)NCc1cccc(-c2ccn3c(-c4cccc(NC(=O)NCC(F)(F)F)c4)cnc3c2)c1 [Example 239, N-[3-(3-{3-[3-(2,2,2-Trifluoro-ethyl)-ureido]-phenyl}-imidazo[1,2-a]pyridin-7-yl)-benzyl]-methane-sulfonamide]
O=C(NCC(F)(F)F)Nc1cccc(-c2cnc3cc(-c4cnco4)ccn23)c1 [Example 240, 1-[3-(7-Oxazol-5-yl-imidazo[1,2-a]pyridin-3-yl)-phenyl]-3-(2,2,2-trifluoro-ethyl)-urea]
O=C(NCC(F)(F)F)Nc1cccc(-c2cnc3cc(-c4cccc(NC5CCOCC5)c4)ccn23)c1 [Example 244, 1-(3-{7-[3-(Tetrahydro-pyran-4-ylamino)-phenyl]-imidazo[1,2-a]pyridin-3-yl}-phenyl)-3-(2,2,2-trifluoro-ethyl)-urea]
